Test results from patent publication US20020111274A1, “1-alkyl-3-[1-(substituted phenyl) benzotriazol-6-yl] uracils” (BASF Aktiengesellschaft, priority 2000, published 2002).

Columns and labels:
[1] = system: ABUTH Velvetleaf; experiment: Postemergence herbicidal evaluation, ABUTH; type: in vivo, Abutilon theophrasti, Medic.; design: scale not given here; conditions: postemergence spray, rated about two-three weeks after treatment
Method in brief: (§1)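 Postemergence spray, 40 psi nozzle, on ~2-week seedlings. Carrier: acetone/water 80/20, 1.0% methylated seed oil; dose ~0.006–0.400 kg/ha. Scored visually at 2–3 weeks.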

[2] = system: AMBEL Ragweed, Common; experiment: Postemergence herbicidal evaluation, AMBEL; type: in vivo, Ambrosia artemisifolia, L.; design: scale not given here; conditions: postemergence spray, rated about two-three weeks after treatment
Method in brief: as §1

[3] = system: CASOB Sicklepod; experiment: Postemergence herbicidal evaluation, CASOB; type: in vivo, Cassia obtusifolia, L.; design: scale not given here; conditions: postemergence spray, rated about two-three weeks after treatment
Method in brief: as §1

[4] = system: CHEAL Lambsquarters, Common; experiment: Postemergence herbicidal evaluation, CHEAL; type: in vivo, Chenopodium album, L.; design: scale not given here; conditions: postemergence spray, rated about two-three weeks after treatment
Method in brief: as §1

[5] = system: ECHOG Barnyardgrass; experiment: Postemergence herbicidal evaluation, ECHOG; type: in vivo, Echinochloa crus-galli, (L.) Beau; design: scale not given here; conditions: postemergence spray, rated about two-three weeks after treatment
Method in brief: as §1

[6] = system: GALAP Galium; experiment: Postemergence herbicidal evaluation, GALAP; type: in vivo, Galium aparine; design: scale not given here; conditions: postemergence spray, rated about two-three weeks after treatment
Method in brief: as §1

[7] = system: IPOHE Morningglory, Ivyleaf; experiment: Postemergence herbicidal evaluation, IPOHE; type: in vivo, Ipomoea hederacea, (L.) Jacq.; design: scale not given here; conditions: postemergence spray, rated about two-three weeks after treatment
Method in brief: as §1

[8] = system: SETVI Foxtail, Green; experiment: Postemergence herbicidal evaluation, SETVI; type: in vivo, Setaria viridis, (L.) Beau; design: scale not given here; conditions: postemergence spray, rated about two-three weeks after treatment
Method in brief: as §1

[9] = system: GLXMAW Soybean, Williams; experiment: Postemergence herbicidal evaluation, GLXMAW; type: in vivo, Glycine max, (L.) Merr. cv Williams; design: scale not given here; conditions: postemergence spray, rated about two-three weeks after treatment
Method in brief: as §1

[10] = system: TRZAWR Wheat, Winter, cv Riband; experiment: Postemergence herbicidal evaluation, TRZAWR; type: in vivo, Triticum aestivum; design: scale not given here; conditions: postemergence spray, rated about two-three weeks after treatment
Method in brief: as §1

[11] = system: ORYSAT Rice, Tebonnet; experiment: Postemergence herbicidal evaluation, ORYSAT; type: in vivo, Oryza sativa, (L.); design: scale not given here; conditions: postemergence spray, rated about two-three weeks after treatment
Method in brief: as §1

[12] = system: ZEAMX Corn, Field; experiment: Postemergence herbicidal evaluation, ZEAMX; type: in vivo, Zea mays, L. (Sammel-Bezeichnung); design: scale not given here; conditions: postemergence spray, rated about two-three weeks after treatment
Method in brief: as §1

[13] = system: ABUTH Velvetleaf; experiment: Preemergence herbicidal evaluation, ABUTH; type: in vivo, Abutilon theophrasti, Medic.; design: scale not given here; conditions: preemergence
Method in brief: (§2)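 First, seed is blended with potting soil and sown over roughly an inch of soil per cup. Next, the surface is sprayed with an aqueous acetone solution delivering about 0.013–0.800 kg/ha. Finally, cups are grown in the greenhouse and rated after 4–5 weeks.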

[14] = system: AMBEL Ragweed, Common; experiment: Preemergence herbicidal evaluation, AMBEL; type: in vivo, Ambrosia artemisifolia, L.; design: scale not given here; conditions: preemergence
Method in brief: as §2

[15] = system: CASOB Sicklepod; experiment: Preemergence herbicidal evaluation, CASOB; type: in vivo, Cassia obtusifolia, L.; design: scale not given here; conditions: preemergence
Method in brief: as §2

[16] = system: CHEAL Lambsquarters, Common; experiment: Preemergence herbicidal evaluation, CHEAL; type: in vivo, Chenopodium album, L.; design: scale not given here; conditions: preemergence
Method in brief: as §2

[17] = system: ECHOG Barnyardgrass; experiment: Preemergence herbicidal evaluation, ECHOG; type: in vivo, Echinochloa crus-galli, (L.) Beau; design: scale not given here; conditions: preemergence
Method in brief: as §2

[18] = system: GALAP Galium; experiment: Preemergence herbicidal evaluation, GALAP; type: in vivo, Galium aparine; design: scale not given here; conditions: preemergence
Method in brief: as §2

[19] = system: IPOHE Morningglory, Ivyleaf; experiment: Preemergence herbicidal evaluation, IPOHE; type: in vivo, Ipomoea hederacea, (L.) Jacq.; design: scale not given here; conditions: preemergence
Method in brief: as §2

[20] = system: SETVI Foxtail, Green; experiment: Preemergence herbicidal evaluation, SETVI; type: in vivo, Setaria viridis, (L.) Beau; design: scale not given here; conditions: preemergence
Method in brief: as §2

[21] = system: GLXMAW Soybean, Williams; experiment: Preemergence herbicidal evaluation, GLXMAW; type: in vivo, Glycine max, (L.) Merr. cv Williams; design: scale not given here; conditions: preemergence
Method in brief: as §2

[22] = system: TRZAWR Wheat, Winter, cv Riband; experiment: Preemergence herbicidal evaluation, TRZAWR; type: in vivo, Triticum aestivum; design: scale not given here; conditions: preemergence, rate 0.062 kg/ha
Method in brief: as §2

[23] = system: ORYSAT Rice, Tebonnet; experiment: Preemergence herbicidal evaluation, ORYSAT; type: in vivo, Oryza sativa, (L.); design: scale not given here; conditions: preemergence
Method in brief: as §2

[24] = system: ZEAMX Corn, Field; experiment: Preemergence herbicidal evaluation, ZEAMX; type: in vivo, Zea mays, L. (Sammel-Bezeichnung); design: scale not given here; conditions: preemergence
Method in brief: as §2

- melting point: 189 to 192 °C
SMILES: CCc1ccc(-n2nnc3cc(F)c(-n4c(=O)cc(C(F)(F)F)n(C)c4=O)cc32)cc1 [Example 17, 3-[1-(4-ethylphenyl)-5-fluoro-1H-1,2,3-benzotriazol-6-yl]-1-methyl-6-(trifluoromethyl)-2,4(1H,3H)-pyrimidinedione]
- Postemergence herbicidal rating ABUTH ([1]; 0.008 kg/ha): 9.0
- Postemergence herbicidal rating ABUTH ([1]; 0.016 kg/ha): 9.0
- Postemergence herbicidal rating ABUTH ([1]; 0.032 kg/ha): 9.0
- Postemergence herbicidal rating ABUTH ([1]; 0.062 kg/ha): 9.0
- Postemergence herbicidal rating AMBEL ([2]; 0.008 kg/ha): 5.0
- Postemergence herbicidal rating AMBEL ([2]; 0.016 kg/ha): 6.0
- Postemergence herbicidal rating AMBEL ([2]; 0.032 kg/ha): 8.0
- Postemergence herbicidal rating AMBEL ([2]; 0.062 kg/ha): 9.0
- Postemergence herbicidal rating CASOB ([3]; 0.008 kg/ha): 1.0
- Postemergence herbicidal rating CASOB ([3]; 0.016 kg/ha): 3.0
- Postemergence herbicidal rating CASOB ([3]; 0.032 kg/ha): 5.0
- Postemergence herbicidal rating CASOB ([3]; 0.062 kg/ha): 6.0
- Postemergence herbicidal rating CHEAL ([4]; 0.008 kg/ha): 9.0
- Postemergence herbicidal rating CHEAL ([4]; 0.016 kg/ha): 6.0
- Postemergence herbicidal rating CHEAL ([4]; 0.032 kg/ha): 7.0
- Postemergence herbicidal rating CHEAL ([4]; 0.062 kg/ha): 9.0
- Postemergence herbicidal rating ECHCG ([5]; 0.008 kg/ha): 0.0
- Postemergence herbicidal rating ECHCG ([5]; 0.016 kg/ha): 0.0
- Postemergence herbicidal rating ECHCG ([5]; 0.032 kg/ha): 1.0
- Postemergence herbicidal rating ECHCG ([5]; 0.062 kg/ha): 5.0
- Postemergence herbicidal rating GALAP ([6]; 0.008 kg/ha): 2.0
- Postemergence herbicidal rating GALAP ([6]; 0.016 kg/ha): 4.0
- Postemergence herbicidal rating GALAP ([6]; 0.032 kg/ha): 4.0
- Postemergence herbicidal rating GALAP ([6]; 0.062 kg/ha): 7.0
- Postemergence herbicidal rating IPOHE ([7]; 0.008 kg/ha): 9.0
- Postemergence herbicidal rating IPOHE ([7]; 0.016 kg/ha): 9.0
- Postemergence herbicidal rating IPOHE ([7]; 0.032 kg/ha): 9.0
- Postemergence herbicidal rating IPOHE ([7]; 0.062 kg/ha): 9.0
- Postemergence herbicidal rating SETVI ([8]; 0.008 kg/ha): 1.0
- Postemergence herbicidal rating SETVI ([8]; 0.016 kg/ha): 1.0
- Postemergence herbicidal rating SETVI ([8]; 0.032 kg/ha): 3.0
- Postemergence herbicidal rating SETVI ([8]; 0.062 kg/ha): 8.0
- Postemergence herbicidal rating GLXMAW ([9]; 0.008 kg/ha): 5.5
- Postemergence herbicidal rating GLXMAW ([9]; 0.016 kg/ha): 5.5
- Postemergence herbicidal rating GLXMAW ([9]; 0.032 kg/ha): 5.5
- Postemergence herbicidal rating GLXMAW ([9]; 0.062 kg/ha): 7.0
- Postemergence herbicidal rating TRZAWR ([10]; 0.008 kg/ha): 3.5
- Postemergence herbicidal rating TRZAWR ([10]; 0.016 kg/ha): 3.5
- Postemergence herbicidal rating TRZAWR ([10]; 0.032 kg/ha): 4.0
- Postemergence herbicidal rating TRZAWR ([10]; 0.062 kg/ha): 5.0
- Postemergence herbicidal rating ORYSAT ([11]; 0.008 kg/ha): 3.0
- Postemergence herbicidal rating ORYSAT ([11]; 0.016 kg/ha): 3.0
- Postemergence herbicidal rating ORYSAT ([11]; 0.032 kg/ha): 3.5
- Postemergence herbicidal rating ORYSAT ([11]; 0.062 kg/ha): 4.0
- Postemergence herbicidal rating ZEAMX ([12]; 0.008 kg/ha): 5.0
- Postemergence herbicidal rating ZEAMX ([12]; 0.016 kg/ha): 5.5
- Postemergence herbicidal rating ZEAMX ([12]; 0.032 kg/ha): 5.5
- Postemergence herbicidal rating ZEAMX ([12]; 0.062 kg/ha): 5.5
- ABUTH herbicidal rating ([13]; rate 0.016 kg/ha): 9.0
- ABUTH herbicidal rating ([13]; rate 0.032 kg/ha): 7.0
- ABUTH herbicidal rating ([13]; rate 0.062 kg/ha): 9.0
- ABUTH herbicidal rating ([13]; rate 0.125 kg/ha): 9.0
- AMBEL herbicidal rating ([14]; rate 0.016 kg/ha): 0.0
- AMBEL herbicidal rating ([14]; rate 0.032 kg/ha): 3.3
- AMBEL herbicidal rating ([14]; rate 0.062 kg/ha): 6.7
- AMBEL herbicidal rating ([14]; rate 0.125 kg/ha): 8.3
- CASOB herbicidal rating ([15]; rate 0.016 kg/ha): 0.0
- CASOB herbicidal rating ([15]; rate 0.032 kg/ha): 1.3
- CASOB herbicidal rating ([15]; rate 0.062 kg/ha): 3.3
- CASOB herbicidal rating ([15]; rate 0.125 kg/ha): 2.3
- CHEAL herbicidal rating ([16]; rate 0.016 kg/ha): 9.0
- CHEAL herbicidal rating ([16]; rate 0.032 kg/ha): 9.0
- CHEAL herbicidal rating ([16]; rate 0.062 kg/ha): 9.0
- CHEAL herbicidal rating ([16]; rate 0.125 kg/ha): 9.0
- ECHCG herbicidal rating ([17]; rate 0.016 kg/ha): 0.0
- ECHCG herbicidal rating ([17]; rate 0.032 kg/ha): 1.7
- ECHCG herbicidal rating ([17]; rate 0.062 kg/ha): 6.3
- ECHCG herbicidal rating ([17]; rate 0.125 kg/ha): 8.3
- GALAP herbicidal rating ([18]; rate 0.016 kg/ha): 0.0
- GALAP herbicidal rating ([18]; rate 0.032 kg/ha): 0.0
- GALAP herbicidal rating ([18]; rate 0.062 kg/ha): 1.0
- GALAP herbicidal rating ([18]; rate 0.125 kg/ha): 1.0
- IPOHE herbicidal rating ([19]; rate 0.016 kg/ha): 0.0
- IPOHE herbicidal rating ([19]; rate 0.032 kg/ha): 3.3
- IPOHE herbicidal rating ([19]; rate 0.062 kg/ha): 6.0
- IPOHE herbicidal rating ([19]; rate 0.125 kg/ha): 9.0
- SETVI herbicidal rating ([20]; rate 0.016 kg/ha): 6.5
- SETVI herbicidal rating ([20]; rate 0.032 kg/ha): 7.3
- SETVI herbicidal rating ([20]; rate 0.062 kg/ha): 9.0
- SETVI herbicidal rating ([20]; rate 0.125 kg/ha): 9.0
- GLXMAW herbicidal rating ([21]; rate 0.016 kg/ha): 1.5
- GLXMAW herbicidal rating ([21]; rate 0.032 kg/ha): 1.7
- GLXMAW herbicidal rating ([21]; rate 0.062 kg/ha): 3.0
- GLXMAW herbicidal rating ([21]; rate 0.125 kg/ha): 3.0
- TRZAWR herbicidal rating [22]: 3.0
- ORYSAT herbicidal rating ([23]; rate 0.016 kg/ha): 1.0
- ORYSAT herbicidal rating ([23]; rate 0.032 kg/ha): 0.5
- ORYSAT herbicidal rating ([23]; rate 0.062 kg/ha): 4.0
- ORYSAT herbicidal rating ([23]; rate 0.125 kg/ha): 4.7
- ZEAMX herbicidal rating ([24]; rate 0.016 kg/ha): 1.0
- ZEAMX herbicidal rating ([24]; rate 0.032 kg/ha): 3.7
- ZEAMX herbicidal rating ([24]; rate 0.062 kg/ha): 4.0
- ZEAMX herbicidal rating ([24]; rate 0.125 kg/ha): 6.7
